From patent publication US9017645B2, “Homoglutamic acid derivatives” (Piramal Imaging SA, priority 2009, dated 2015)

Legend:
[1] = tested on: H460 (human NSCLC) cells; experiment: Cell uptake of F-18 labeled tracer in H460 cells; type: cell-based; conditions: 0.25 MBq, 60 min incubation, PBS 0.1% BSA
Method: FIG. 4: Time dependent uptake of (2S)-2-amino-5-[3-[^18F]fluoropropyl]hexanedioic acid was determined. H460 cells were incubated with 0.25 MBq (2S)-2-amino-5-[3-[^18F]fluoropropyl]hexanedioic acid for up to 60 min and the cell-bound fraction was determined after 10, 20, 30 and 60 min)
Cell uptake & Retention of (2S)-2-amino-5-[3-[^18F]fluoropropyl]hexanedioic acid—For determination of the biological activity of (2S)-2-amino-5-[3-[^18F]fluoropropyl]hexanedioic acid, the F-18 labeled compound was used as tracer in a cell uptake experiment using H460 (human NSCLC) cells. Approximately 100.000 cells were incubated with 0.25 MBq (2S)-2-amino-5-[3-[^18F]fluoropropyl]hexanedioic acid for up to 60 minutes in PBS-buffer containing 0.1% BSA and the cell-bound fraction was determined. A time-dependent uptake was observed during the 60 min incubation period. Approximately 20% of applied dose was taken up by the cells during the 60 min incubation period (FIG. 4).

[2] = tested on: NCI-H460 (human NSCLC) tumor bearing nude-rats; experiment: PET imaging in NCI-H460 tumor bearing nude-rats; type: in vivo, nude-rats (RH-Foxn1 nu/nu); conditions: 8.35 MBq i.v., PET at 60 min p.i. for 10 min
Method: FIG. 6: PET-Imaging of (2S)-2-amino-5-[3-[^18F]fluoropropyl]hexanedioic acid in H460 tumor bearing rats. 8.35 MBq of radioactive tracer was injected i.v. into rats. PET images were obtained using the Siemens Inveon PET/CT scanner from 60 min p.i. for 10 min.
PET imaging. (2S)-2-amino-5-[3-[^18F]fluoropropyl]hexanedioic acid was examined in NCI-H460 (human NSCLC) tumor bearing nude-rats (RH-Foxn1 nu/nu) using PET-Imaging. 8.35 MBq of (2S)-2-amino-5-[3-[^18F]fluoropropyl]hexanedioic acid was injected into the rat. PET images were acquired at 60 min p.i. for 10 min. […] 3.2% of the injected dose was taken up per gram of tumor as was determined by region of interest (ROI) analysis (FIG. 6).

- tumor uptake by region of interest (ROI) analysis [2]: 3.2 % of the injected dose per gra
Structure (SMILES): N[C@@H](CCC(CCC[18F])C(=O)O)C(=O)O (stereo partly drawn) [(2S)-2-amino-5-[3-[^18F]fluoropropyl]hexanedioic acid]
- cell uptake (cell-bound fraction) [1]: Approximately 20 % of applied dose
- visibility of the tumor in PET images [2]: very well visible
